From US20080287532A1, “OXACYCLOPENTENE-2 DERIVATIVES” (priority 2007, published 2008)
Like-named read-outs stand apart in the source and are kept apart here.

Experiments:
[1] = tested on: antibody production (AFC) after Adriamycin immunosuppression; assay: Adriamycin-induced immunosuppression model, antibody (AFC) response to SRBC; format: in vivo, mice
Description: (§1) For induction of a primary humoral PFC response, C57BL/6J mice were immunized intraperitoneally with 0.1 ml of a 5% suspension of SRBC, containing 1×10^8 cells. On day 5 after immunization animals were sacrificed under deep ether anesthesia, spleens were dissected out and minced through a stainless steel mesh. Individual spleen cell suspensions were washed three times with Hank's BSS, nucleated cells number was determined with a haemocytometer, viability was assessed by exclusion of trypan blue and adjusted to 1×10^7 viable cells per ml in Medium 199 containing Earle's salts and L-glutamine.
(§2) For the PFC assay, suspensions containing 1×10^6 spleen cells, 1×10^9 SRBCs and guinea pig serum (diluted 1:10, a source of complement), were introduced into a Cunningham chambers (100 μl volume) and incubated for 1 h at 37° C. The number of hemolytic plaques, produced by anti-SRBC IgM secreting plasma cells, was counted using a light microscope, and the number of PFC determined for each mice was expressed per 1×10^6 spleen cells and per whole spleen.
Immunosupression in mice was induced by parentreral administration of Adriamycin or Cyclophosphamide. Mice were injected with Adriamycin intraperitoneally in a dose of 5 mg/kg one day before the immunization with SRBC. Cyclophosphamide was used in a dose of 100 mg/kg 24 hours before the antigen challenge with SRBC.
Even in this extreme situation, administration of 2-methyl-3-ethoxycarbonyl-4-(2-methoxyphenyl)-5-methoxy-(1-oxacyclopentene-2, example 6) in dose 2.5 mg/kg produces a nearly 3 folds increase in antibody levels. […] (See FIG. 8).

[2] = tested on: cellular immune response (T-cells response) to SRBC; assay: Delayed Type Hypersensitivity test (DTH), foot pad edema after SRBC challenge; format: in vivo, mice
Description: The method of Lagrange et al. was used. Mice were sensitized intravenously (iv) with 10^5 SRBC in saline. After 4 days, the mice were given eliciting dose of the antigen: 10^8 SRBS in 20 mcl of sterile saline into right hind paw, left hind paw was injected with 20 mcl of sterile saline. In 24 hours after challenge, the foot pad edema volume was measured using a caliper. The difference in volume (mcl) between the right paw (antigen-injected) and left paw (saline-injected) is calculated (Δ) and used as edema volume.

[3] = tested on: anti-SRBC IgM secreting plasma cells (antibody-forming cells, AFC); format: in vivo; conditions: for AFC number increase, % of control: mice immunized with SRBC
Excerpt: Humoral-mediated immune response is routinely measured using the antibody-forming cell (AFC) assay. Primarily used for evaluating humoral immunity, this assay, in fact, evaluates overall immune competence including T- and B-cell function, antigen processing and presentation. Sheep Red Blood Cells (SRBC) are the most common T-dependent antigen used for this assay.
Primary IgM response after SRBC administration was quantitatively estimated using a modified hemolytic plaque-forming cell assay
Since SRBC are T-dependent antigen, a normal AFC response depends on multiple factors: antigen processing and presentation actuated by macrophages, appropriate T-cell signalling, B-cells differentiation, and affinity maturation of antibodies in plasma cells.
as §1, §2

[4] = Administered dose related to LD50; format: in vivo; conditions: Levamisol dose 2.5 mg/kg
[5] = dose 10 mg/kg, mice sensitized with SRBC

SMILES: COc1cccc2c1C(=O)c1c(O)c3c(c(O)c1C2=O)C[C@@](O)(C(=O)CO)C[C@@H]3O[C@H]1C[C@H](N)[C@H](O)[C@H](C)O1 [Adriamycin]
- Total number of AFC, % of initial values ([1]; after Adriamycin administration (5 mg/kg i.p.)): 1-2%

SMILES: CCOC(=O)C1=C(C)OC(OC)C1CC(C)C (stereo not shown) [Example 1]
- DTH foot pad edema, % of control [2, 5]: 300%
- AFC number increase, % of control ([3]; dose 2.5 mg/kg): 209%
- AFC number increase, % of control ([3]; dose 5 mg/kg): 275%
- AFC number increase, % of control ([3]; dose 10 mg/kg): 453%

SMILES: CCCCCC1C(C(=O)OCC)=C(C)OC1OC (stereo not shown) [Example 2]
- DTH foot pad edema, % of control [2, 5]: 220%
- AFC number increase, % of control ([3]; dose 2.5 mg/kg): 360%
- AFC number increase, % of control ([3]; dose 5 mg/kg): 331%
- AFC number increase, % of control ([3]; dose 10 mg/kg): 330%

SMILES: CCCCCCCCCC1C(C(=O)OCC)=C(C)OC1OC (stereo not shown) [Example 3]
- DTH foot pad edema, % of control [2, 5]: 250%
- AFC number increase, % of control ([3]; dose 2.5 mg/kg): 225%
- AFC number increase, % of control ([3]; dose 5 mg/kg): 289%
- AFC number increase, % of control ([3]; dose 10 mg/kg): 326%

SMILES: CCCCCCCCCCCC1C(C(=O)OCC)=C(C)OC1OC (stereo not shown) [Example 4]
- DTH foot pad edema, % of control [2, 5]: 240%
- AFC number increase, % of control ([3]; dose 2.5 mg/kg): 253%
- AFC number increase, % of control ([3]; dose 5 mg/kg): 330%
- AFC number increase, % of control ([3]; dose 10 mg/kg): 282%

SMILES: CCOC(=O)C1=C(C)OC(OC)C1c1ccccc1 (stereo not shown) [Example 5]
- DTH foot pad edema, % of control [2, 5]: 200%
- AFC number increase, % of control ([3]; dose 2.5 mg/kg): 202%
- AFC number increase, % of control ([3]; dose 5 mg/kg): 324%
- AFC number increase, % of control ([3]; dose 10 mg/kg): 259%

SMILES: CCOC(=O)C1=C(C)OC(OC)C1c1ccccc1OC (stereo not shown) [Example 6]
- DTH foot pad edema, % of control [2, 5]: 190%
- Increase in antibody levels ([1]; dose 2.5 mg/kg, Adriamycin 5 mg/kg i.p. one day before SRBC immunization): ~3 folds
- AFC number increase, % of control ([3]; dose 2.5 mg/kg): 260%
- AFC number increase, % of control ([3]; dose 5 mg/kg): 229%
- AFC number increase, % of control ([3]; dose 10 mg/kg): 440%

SMILES: CCOC(=O)C1=C(C)OC(OC)C1c1ccc(Cl)cc1Cl (stereo not shown) [Example 7]
- DTH foot pad edema, % of control [2, 5]: 230%
- AFC number increase, % of control ([3]; dose 2.5 mg/kg): 269%
- AFC number increase, % of control ([3]; dose 5 mg/kg): 302%
- AFC number increase, % of control ([3]; dose 10 mg/kg): 358%

SMILES: CCOC(=O)C1=C(C(Br)Br)OC(OC)C1c1ccccc1 (stereo not shown) [Example 8]
- DTH foot pad edema, % of control [2, 5]: 260%
- AFC number increase, % of control ([3]; dose 2.5 mg/kg): 188%
- AFC number increase, % of control ([3]; dose 5 mg/kg): 276%
- AFC number increase, % of control ([3]; dose 10 mg/kg): 271%

SMILES: COC1OC(C)=C(C(=O)O)C1CC(C)C (stereo not shown) [Example 9]
- DTH foot pad edema, % of control [2, 5]: 360%
- AFC number increase, % of control ([3]; dose 2.5 mg/kg): 230%
- AFC number increase, % of control ([3]; dose 5 mg/kg): 320%
- AFC number increase, % of control ([3]; dose 10 mg/kg): 360%

SMILES: COC1OC(C)=C(C(=O)[O-])C1CC(C)C.[Li+] (stereo not shown) [Example 10]
- DTH foot pad edema, % of control [2, 5]: 360%
- AFC number increase, % of control ([3]; dose 2.5 mg/kg): 290%
- AFC number increase, % of control ([3]; dose 5 mg/kg): 320%
- AFC number increase, % of control ([3]; dose 10 mg/kg): 470%

SMILES: CCCCCCC1C(C(=O)OCC)=C(C)OC1OC (stereo not shown) [Example 11]
- DTH foot pad edema, % of control [2, 5]: 210%
- AFC number increase, % of control ([3]; dose 2.5 mg/kg): 245%
- AFC number increase, % of control ([3]; dose 5 mg/kg): 241%
- AFC number increase, % of control ([3]; dose 10 mg/kg): 287%

SMILES: CCCCC1C(C(=O)OCC)=C(C)OC1OC (stereo not shown) [Example 12]
- DTH foot pad edema, % of control [2, 5]: 230%
- AFC number increase, % of control ([3]; dose 2.5 mg/kg): 251%
- AFC number increase, % of control ([3]; dose 5 mg/kg): 239%
- AFC number increase, % of control ([3]; dose 10 mg/kg): 291%

SMILES: CCOC(=O)C1=C(C)OC(OC)C1c1cccnc1 (stereo not shown) [Example 13]
- DTH foot pad edema, % of control [2, 5]: 180%
- AFC number increase, % of control ([3]; dose 2.5 mg/kg): 168%
- AFC number increase, % of control ([3]; dose 5 mg/kg): 201%
- AFC number increase, % of control ([3]; dose 10 mg/kg): 191%

SMILES: CCOC(=O)C1=C(C)OC(OC)C1c1cccc(OC)c1 (stereo not shown) [Example 14]
- DTH foot pad edema, % of control [2, 5]: 200%
- AFC number increase, % of control ([3]; dose 2.5 mg/kg): 135%
- AFC number increase, % of control ([3]; dose 5 mg/kg): 187%
- AFC number increase, % of control ([3]; dose 10 mg/kg): 254%

SMILES: CCOC(=O)C1=C(C)OC(OC)C1c1ccc(OC)cc1 (stereo not shown) [Example 15]
- DTH foot pad edema, % of control [2, 5]: 160%
- AFC number increase, % of control ([3]; dose 2.5 mg/kg): 291%
- AFC number increase, % of control ([3]; dose 5 mg/kg): 312%
- AFC number increase, % of control ([3]; dose 10 mg/kg): 267%

SMILES: CCOC(=O)C1=C(CC)OC(OC)C1c1ccc(C)cc1C (stereo not shown) [Example 16]
- DTH foot pad edema, % of control [2, 5]: 140%
- AFC number increase, % of control ([3]; dose 2.5 mg/kg): 165%
- AFC number increase, % of control ([3]; dose 5 mg/kg): 192%
- AFC number increase, % of control ([3]; dose 10 mg/kg): 217%

SMILES: c1ccc([C@H]2CN3CCSC3=N2)cc1 [Levamisol, reference compound]
- DTH foot pad edema, % of control ([2]; Levamisol positive control, dose 2.5 mg/kg): 240%
- Cellular immune response increase ([2]; after Levamisol administration): 240%
- Antibody response in Adriamycin immunosuppression model ([1]; Adriamycin-induced immunosuppression): no antibody response
- Administered dose as % of LD50 [4]: 10 % of LD50
- Increase in antibody formation ([3]; Levamisol positive reference, dose 2.5 mg/kg): 20%
- AFC number increase, % of control ([3]; dose 2.5 mg/kg): 121%
- Toxic effects (AFC not determined at higher doses) ([3]; mouse, in vivo): ND (toxic effects)
